In patent US20050282893A1 (priority 2004, published 2005):
Values joined by “and” are separate entries in the source; they are usually repeats but may differ in a detail not shown here. Identical values can stand only once. Like-named read-outs stand apart in the source and are kept apart here. Marks after values point to notes of the source that are not given here.

Assays:
FaDu cells = test: Paclitaxel cytotoxicity (SRB method) in hTR antisense-transfected FaDu cells; assay type: cell-based; details: Homo sapiens, paclitaxel 96 hours
Procedure: Effect of hTR antisense on the cytotoxic effect of […]. Two clones of cells that were stably transfected with the hTR antisense were studied. The cytotoxic effect of paclitaxel was quantified using the SRB method, which measures the total cellular proteins. The cells transfected with hTR antisense were treated with IPTG for 44 (clone#1) to 57 (clone #2) days, and then with paclitaxel for 96 hours.

[1] = test system: human pharynx FaDu xenografts
Procedure: Xenografts were formed by subcutaneous injection of 106 viable tumor cells in 0.1 ml physiologic saline in the right and left flank areas, and were allowed to grow for about 14 days to reach a size of >15 mm^3 before drug treatment was started. […] The saline control group received injections of 200 μl/day of physiological saline for five consecutive days. The paclitaxel group received injections of 10 mg/kg/day paclitaxel dissolved in Cremophor and ethanol (i.e., Taxol) in a volume of 200 μl for five consecutive days. […] Animal weights and tumor sizes were measured on days 1, 3, 6, 8, and 10 after initiation of the paclitaxel treatment.
The antitumor effect of the drug treatments was measured in three ways. The first was the reduction in tumor size. Tumor sizes were determined by first preparing a mold of the extruding tumor using Jeltrate, a rapidly setting molding material, and then preparing and weighing the countermold. Second, the apoptotic effect was measured. The animals were euthanized on day 10, and the tumors were harvested and fixed in formalin. Histologic sections of 5-micron thickness were prepared and stained with hematoxylin and eosin. The tumor sections were evaluated morphologically for tumor cell density, and density of apoptotic cells. Because apoptotic cells disappear over time, the density of non-apoptotic cells is a secondary indicator of apoptosis. Cell densities were determined by counting the number of cells in four randomly selected microscopic fields at 400× magnification, using image analysis procedures (Song, et al., Proc. Natl. Acad. Sci. USA, 97:8658-8663, 2000). Third, the ability of drug treatment to prolong the survival time was measured. For this study, the animals were monitored for 100 days, or until moribundity, defined by a tumor length exceeding 1.0 cm, was reached.

telomerase [2] = molecular target: T1, telomerase (Homo sapiens, UniProt O14746); test: Telomerase activity after PPS exposure, modified quantitative TRAP assay; assay type: cell-based
Procedure: (§1) Inhibition of telomerase activity in cell lysates and intact cells. The modified Telomeric Repeat Amplification Protocol (TRAP) assay (Gan, et al., Pharm. Res., 18:488-493, 2001) was used to detect telomerase activity in cell lysate. The telomerase activity in intact cells was measured using intracellular TRAP, as follows. Cells (1×10^5) were washed twice with PBS and centrifuged. The cell pellet was resuspended in 100 μl of serum-free RPMI 1640 containing 5 u/ml of Streptolysin O, 2 μM of TS primer, and 50 μM of dNTP, and incubated at room temperature for 5 min. The enzyme streptolysin O was used to increase the cell membrane permeability to the TS primer. Upon entering a cell, the TS primer was elongated by the intracellular telomerase in situ. The elongated TS primer was then isolated from the cells and used as the template for PCR amplification. Then 200 μl of RPMI 1640 medium containing 10% FBS was added to the cells to stop the permeating process. The mixture was incubated at 30° C. for 30 min to allow the extension of intracellular TS primer by telomerase. The cells were then lyzed and the cell lysates, which contained the already extended TS primer, was directly analyzed by TRAP.
Treatment Protocol. Treatment with PPS was initiated after cells were allowed to attach to the growth surface in culture flasks. On the day of experiments, the culture medium was removed and replaced with inhibitor-containing medium. Drug concentrations of 0, 0.1, 1, 10, 100, 1000 μg/ml of PPS were employed. Telomerase activity was measured by the modified quantitative TRAP assay.
Target sequence in this assay (O14746 whole entry): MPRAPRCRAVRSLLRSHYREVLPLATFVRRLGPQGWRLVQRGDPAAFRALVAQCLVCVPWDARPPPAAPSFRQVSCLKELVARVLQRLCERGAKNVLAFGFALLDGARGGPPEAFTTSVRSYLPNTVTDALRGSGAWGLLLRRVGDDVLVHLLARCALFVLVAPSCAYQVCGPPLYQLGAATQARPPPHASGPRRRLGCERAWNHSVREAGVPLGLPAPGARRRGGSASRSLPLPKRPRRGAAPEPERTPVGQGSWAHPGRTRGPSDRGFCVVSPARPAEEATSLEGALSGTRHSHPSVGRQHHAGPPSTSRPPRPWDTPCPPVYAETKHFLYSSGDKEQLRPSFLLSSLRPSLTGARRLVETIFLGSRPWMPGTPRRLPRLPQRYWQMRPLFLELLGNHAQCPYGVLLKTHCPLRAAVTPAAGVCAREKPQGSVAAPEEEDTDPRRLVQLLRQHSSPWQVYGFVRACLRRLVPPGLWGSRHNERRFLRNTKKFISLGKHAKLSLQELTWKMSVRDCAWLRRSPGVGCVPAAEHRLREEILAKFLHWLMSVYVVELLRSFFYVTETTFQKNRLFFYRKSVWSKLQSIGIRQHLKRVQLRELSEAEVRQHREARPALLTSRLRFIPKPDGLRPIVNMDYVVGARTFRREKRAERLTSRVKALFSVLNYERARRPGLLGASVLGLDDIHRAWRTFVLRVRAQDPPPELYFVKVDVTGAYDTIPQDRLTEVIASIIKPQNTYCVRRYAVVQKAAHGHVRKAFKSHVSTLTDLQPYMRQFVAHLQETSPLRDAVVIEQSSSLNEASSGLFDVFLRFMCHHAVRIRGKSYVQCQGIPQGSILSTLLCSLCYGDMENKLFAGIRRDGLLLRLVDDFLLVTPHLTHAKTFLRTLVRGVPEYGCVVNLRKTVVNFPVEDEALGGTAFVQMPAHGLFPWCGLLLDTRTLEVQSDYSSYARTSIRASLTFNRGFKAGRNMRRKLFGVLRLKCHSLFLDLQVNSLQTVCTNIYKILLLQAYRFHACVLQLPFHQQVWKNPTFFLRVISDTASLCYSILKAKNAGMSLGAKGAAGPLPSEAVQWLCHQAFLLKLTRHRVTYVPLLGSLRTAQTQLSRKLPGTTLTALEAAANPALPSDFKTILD
Target sequence in this assay (O60832 whole entry partner): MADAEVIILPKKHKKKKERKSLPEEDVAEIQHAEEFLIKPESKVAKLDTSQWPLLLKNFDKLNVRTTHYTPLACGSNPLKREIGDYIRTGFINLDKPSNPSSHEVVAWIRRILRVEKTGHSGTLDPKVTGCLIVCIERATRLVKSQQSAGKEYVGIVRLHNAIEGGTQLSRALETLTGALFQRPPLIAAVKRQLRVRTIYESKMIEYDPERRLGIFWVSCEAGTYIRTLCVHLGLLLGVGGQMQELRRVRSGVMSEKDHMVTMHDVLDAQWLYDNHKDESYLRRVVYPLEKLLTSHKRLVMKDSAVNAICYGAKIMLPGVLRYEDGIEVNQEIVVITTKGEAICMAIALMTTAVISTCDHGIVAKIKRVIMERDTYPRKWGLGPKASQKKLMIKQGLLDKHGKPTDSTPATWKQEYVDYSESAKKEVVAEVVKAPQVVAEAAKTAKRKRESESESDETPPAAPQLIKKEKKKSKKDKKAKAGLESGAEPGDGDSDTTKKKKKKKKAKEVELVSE
Target sequence in this assay (Q9NPE3 whole entry partner): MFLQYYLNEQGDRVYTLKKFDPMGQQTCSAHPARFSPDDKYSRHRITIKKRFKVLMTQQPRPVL
Target sequence in this assay (Q9NX24 whole entry partner): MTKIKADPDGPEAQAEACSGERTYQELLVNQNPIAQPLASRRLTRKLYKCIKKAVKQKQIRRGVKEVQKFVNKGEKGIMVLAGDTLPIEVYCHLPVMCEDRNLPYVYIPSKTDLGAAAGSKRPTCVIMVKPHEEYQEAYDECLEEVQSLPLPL
Target sequence in this assay (Q9NY12 whole entry partner): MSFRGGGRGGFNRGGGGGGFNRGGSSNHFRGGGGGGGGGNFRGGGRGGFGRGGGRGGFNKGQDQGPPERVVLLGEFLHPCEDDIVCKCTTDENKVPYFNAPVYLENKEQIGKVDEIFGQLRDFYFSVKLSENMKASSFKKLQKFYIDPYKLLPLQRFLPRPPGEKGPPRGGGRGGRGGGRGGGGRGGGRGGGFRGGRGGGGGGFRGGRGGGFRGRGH

[3] = test system: renal cell carcinoma cells (RCC45 and RCC54); test: PPS single agent cytotoxicity, BrdU incorporation, renal cell carcinoma cells; assay type: cell-based
[4] = fifteenth day of oral treatment, about 400 mg per meter squared per day; cited from earlier work
anticoagulation = details: cited from earlier work
RCC45 = test: 5-Fluorouracil inhibition of BrdU incorporation (ELISA), RCC45; assay type: cell-based
Procedure: (§2) A study was performed using two renal cell carcinoma cells (RCC45 and RCC54). 5-Fluorouracil was used as the chemotherapeutic agent. Cells were treated with 5-fluorouracil for 96 hours, with and without PPS. The drug effect was measured as inhibition of the incorporation of a DNA precursor (bromodeoxyuridine or BrdU) using ELISA.

RCC54 = test: 5-Fluorouracil inhibition of BrdU incorporation (ELISA), RCC54; assay type: cell-based
Procedure: as §2

telomerase [5] = molecular target: T1, telomerase; test: Modified TRAP assay, telomerase activity in cell lysate (cell extract); assay type: biochemical; details: mean ± SD, read-out: IC50, inhibition of telomerase activity
Procedure: as §1
Target sequence in this assay (O14746 whole entry): as the sequence (O14746 whole entry) above
Target sequence in this assay (O60832 whole entry partner): as the sequence (O60832 whole entry partner) above
Target sequence in this assay (Q9NPE3 whole entry partner): as the sequence (Q9NPE3 whole entry partner) above
Target sequence in this assay (Q9NX24 whole entry partner): as the sequence (Q9NX24 whole entry partner) above
Target sequence in this assay (Q9NY12 whole entry partner): as the sequence (Q9NY12 whole entry partner) above
Treatment Protocol. Treatment with suramin or AZT was initiated after cells were allowed to attach to the growth surface in culture flasks. […]

telomerase [6] = molecular target: T1, telomerase; test: Intracellular TRAP, telomerase activity in intact cells; assay type: cell-based; details: mean ± SD, read-out: IC50, inhibition of telomerase activity
Target sequence in this assay (O14746 whole entry): as the sequence (O14746 whole entry) above
Target sequence in this assay (O60832 whole entry partner): as the sequence (O60832 whole entry partner) above
Target sequence in this assay (Q9NPE3 whole entry partner): as the sequence (Q9NPE3 whole entry partner) above
Target sequence in this assay (Q9NX24 whole entry partner): as the sequence (Q9NX24 whole entry partner) above
Target sequence in this assay (Q9NY12 whole entry partner): as the sequence (Q9NY12 whole entry partner) above

[7] = test system: telomere length in FaDu and PC3 cells; test: Telomere length in cultured cells after prolonged treatment (TALA / FISH); assay type: cell-based, human; details: prolonged treatment (7-15 weeks)
Text: Measurement of telomere length in cultured cells. Two methods were used to measure telomere length. The first method was a solution hybridization based telomere amount and length assay (TALA) (Gan, et al., Pharm. Res., 18:1655-1659, 2001) that measures the mean length of the terminal restriction fragments (TRF). The second method was fluorescence in situ hybridization (FISH) to detect telomere signal and to estimate the approximate length of individual telomere structures at the end of chromosomes. The FISH method is as described in U.S. patent application Ser. No. 09/587,662 and Gan, et al., 2001.
Treatment Protocol. Treatment with suramin or AZT was initiated after cells were allowed to attach to the growth surface in culture flasks. On the day of experiments, the culture medium was removed and replaced with inhibitor-containing medium.

telomerase [8] = molecular target: T1, telomerase; test: Telomerase IC50 determination, general method; assay type: biochemical; details: read-out: IC50 against telomerase
Text: One method used to identify compounds of the invention that inhibit telomerase activity involves placing cells, tissues, or preferably a cellular extract or other preparation containing telomerase, in contact with several known concentrations of a test compound in a buffer compatible with telomerase activity. […] Other methods for determining the inhibitory concentration of a compound of the invention against telomerase can be employed as will be apparent to those of skill in the art based on the disclosure herein.
Target sequence in this assay (O14746 whole entry): as the sequence (O14746 whole entry) above

FaDu tumor = test: Telomere length by FISH in FaDu tumors implanted in mice; assay type: in vivo
Procedure: Treatment protocol. FaDu cells (0.5˜1×10^6 cells in a volume of 100 μl) were implanted subcutaneously in male BALB/c nu/nu mice. […] The first dose was administered immediately after tumor implantation, with repeat doses given twice a week thereafter. […] Frozen tissue sections were analyzed for telomere length in individual cells using fluorescent in situ hybridization. About 10 microscope fields at 400-fold magnification were randomly chosen for each section, and the percentage of tumor cells with attenuated or lost telomere signals were counted.

FaDu tumors = test: Low-dose suramin, tumor size in mice implanted with FaDu tumors; assay type: in vivo; details: one of six animals; suramin 10 mg/kg ip twice-weekly for 6 weeks
Procedure: Treatment Protocol. Immunosuppressed mice were injected subcutaneously in the thigh area with 5×10^5 FaDu cells. […] Tumor sizes were observed twice-weekly.

[9] = Suramin plasma pharmacokinetics in beagle dogs; assay type: in vivo; details: 6.75 mg/kg iv infusion over 30 minutes
Text: Treatment protocol. […] The animals were cannulated in the cephalic veins of both front legs.

[10] = Intravesical suramin in dogs: bladder contents, bladder wall and plasma concentrations; assay type: in vivo; details: for concentration at 120 min: beagle, dog, bladder wall tissue, other: intravesical, 6 mg/ml
Procedure: Treatment protocol Five beagle dogs, weighing 9.0±0.4 kg, were used. The animals were cannulated in a cephalic vein for administration of anesthetics, and in a jugular vein for blood sampling. A urethral catheter was inserted for dose instillation and sampling of the bladder contents. […] Concentrations of the bladder contents and systemic plasma were sampled at frequent intervals for 120 minutes, at which time the bladder tissue was harvested and the animal sacrificed. Tissue sections of approximately 2 cm×2 cm surface area were cut from the bladder wall, and rapidly frozen on a flat stainless steel plate cooled on dry ice. The outer edges of the tissue samples were trimmed to avoid contamination with instillation fluid, and the frozen tissues cut into 40 μm sections parallel to the urothelial surface.

[11] = human patients; cited from earlier work
in vivo = details: BALB/c nu/nu, mouse, plasma, intravenous, 10 mg/kg
[12] = test system: stage IIIB/IV nonsmall cell lung cancer; details: 290 patients; cited from earlier work

Compound: CC(=O)O[C@H]1C(=O)[C@@]2(C)[C@H]([C@H](OC(=O)c3ccccc3)[C@]3(O)C[C@H](OC(=O)[C@H](O)[C@@H](NC(=O)c4ccccc4)c4ccccc4)C(C)=C1C3(C)C)[C@]1(OC(C)=O)CO[C@@H]1C[C@@H]2O [paclitaxel]
- IC50 (FaDu cells; 96 h, +IPTG cells, read-out: IC50 of paclitaxel, clone #1): 2.42 nM
- IC50 (FaDu cells; 96 h, +IPTG cells, read-out: IC50 of paclitaxel, clone #2): 2.53 nM
- IC50 (FaDu cells; 96 h, +antisense cells (no IPTG), read-out: IC50 of paclitaxel, clone #1): 2.46 nM
- IC50 (FaDu cells; 96 h, +antisense cells (no IPTG), read-out: IC50 of paclitaxel, clone #2): 2.87 nM
- IC50 (FaDu cells; 96 h, +sense +IPTG cells, read-out: IC50 of paclitaxel, clone #1): 2.56 nM
- IC50 (FaDu cells; 96 h, +sense +IPTG cells, read-out: IC50 of paclitaxel, clone #2): 2.21 nM
- IC50 (FaDu cells; 96 h, Control cells, read-out: IC50 of paclitaxel, clone #1): 2.04 nM
- IC50 (FaDu cells; 96 h, Control cells, read-out: IC50 of paclitaxel, clone #2): 2.05 nM
- IC50 (FaDu cells; +antisense +IPTG cells (IPTG 44 days), read-out: IC50 of paclitaxel, clone #1): 1.3 nM
- IC50 (FaDu cells; +antisense +IPTG cells (IPTG 57 days), read-out: IC50 of paclitaxel, clone #2): 1.33 nM
- median time to reach moribundity ([1]; Kaplan Meier analysis, monitored for 100 days): 42 days
- % Apoptotic cells per tumor ([1]; day 10 tumors, Mean ± SD): 30 ± 17%^a
- Number of apoptotic cells per 400x field ([1]; day 10 tumors, Mean ± SD): 66 ± 34^a
- Number of nonapoptotic cells per 400x field ([1]; day 10 tumors, Mean ± SD): 168 ± 53^a
- End-of-experiment body weight, % of pretreatment value ([1]; mouse, in vivo): 97 ± 6^a % of pretreatment value
- body weight loss compared to the pretreatment weight ([1]; mouse, in vivo): < 3%
- tumor-free survivors ([1]; of 12 animals): did not show tumor-free survivors
- toxicity-related death ([1]; single agents): no toxicity-related death

Compound: pentosan polysulfate [PPS]
- concentration resulting in 50% inhibition of telomerase activity (telomerase [2]; FaDu cells): 0.56 µg/mL
- concentration resulting in 50% inhibition of telomerase activity (telomerase [2]; SKOV-3 cells): 0.60 µg/mL
- concentrations resulting in 80% inhibition of telomerase activity (telomerase [2]; both cells (FaDu and SKOV-3)): less than 10 μg/ml
- concentrations resulting in 90% inhibition of telomerase activity (telomerase [2]; both cells (FaDu and SKOV-3)): less than 100 μg/ml
- concentrations required for 50% inhibition of telomerase activity (telomerase [2]; summary of Example 3): 0.5 to 0.6 µg/mL
- IC50 of PPS as a single agent ([3]; 96 hours, BrdU incorporation): ~1,400 μg/ml
- cytotoxicity of PPS ([3]; at 10 and 100 μg/ml): no cytotoxicity
- plasma concentrations [4]: 200 to 460 ng/mL
- concentrations at which anticoagulation is found (anticoagulation): above 1 μg/ml

Compound: O=c1[nH]cc(F)c(=O)[nH]1 [5-fluorouracil]
- IC50 (RCC45; RCC45, No PPS): 7580 nM
- IC50 (RCC45; RCC45, With 10 μg/ml PPS): 5150 nM
- IC50 (RCC54; RCC54, No PPS): 7270 nM
- IC50 (RCC54; RCC54, With 10 μg/ml PPS): 4650 nM
- IC50 (RCC54; RCC54, With 10 μg/ml PPS plus 30 μM suramin): 2340 nM
- IC50 (RCC54; RCC54, With 100 μg/ml PPS): 3580 nM

Compound: Cc1ccc(C(=O)Nc2ccc(S(=O)(=O)O)c3cc(S(=O)(=O)O)cc(S(=O)(=O)O)c23)cc1NC(=O)c1cccc(NC(=O)Nc2cccc(C(=O)Nc3cc(C(=O)Nc4ccc(S(=O)(=O)O)c5cc(S(=O)(=O)O)cc(S(=O)(=O)O)c45)ccc3C)c2)c1 [Suramin, suramin]
- IC50 (telomerase [5]; MCF7, cell extract): 2800 ± 1500 nM
- IC50 (telomerase [5]; PC3, cell extract): 1600 ± 700 nM
- IC50 (telomerase [6]; FaDu, intact cell): 1700 ± 1000 nM
- IC50 (telomerase [6]; MCF7, intact cell): 1400 ± 1100 nM
- IC50 (telomerase [6]; PC3, intact cell): 2300 ± 900 nM
- telomere shortening [7]: about 30%
- IC50 (telomerase [8]): < 10000 nM
- bodyweight increase compared with saline (FaDu tumor; 10 mg/kg iv twice a week): undistinguishable rates of bodyweight increases
- tumor establishment rate (FaDu tumor; 10 mg/kg iv twice a week from implantation): 100%
- fraction of cells with a reduced or eliminated telomere signal (FaDu tumor; first two weeks of treatment, 10 mg/kg iv twice a week): approximately 10%
- fraction of cells with a reduced or eliminated telomere signal (FaDu tumor; week 3, 10 mg/kg iv twice a week): approximately 40%
- fraction of cells with a reduced or eliminated telomere signal (FaDu tumor; week 4, 10 mg/kg iv twice a week): 75%
- fraction of cells with a reduced or eliminated telomere signal (FaDu tumor; week 5, 10 mg/kg iv twice a week): over 80%
- fraction of cells with a reduced or eliminated telomere signal (FaDu tumor; week 6, 10 mg/kg iv twice a week): 95%
- tumor outcome (FaDu tumors): completely disappeared
- terminal half-life ([9]; 6.75 mg/kg): 13 days
- half-life ([9]; beagle, dog, plasma, read-out: terminal half-life (converted)): 13 days
- clearance ([9]; beagle, dog, plasma, read-out: total clearance (converted)): 2.1 mL/h/kg
- suramin concentration in the bladder contents ([10]; 120 minutes after intravesical 6 mg/ml): 3.6 mg/mL
- plasma concentrations ([10]; at all times, intravesical 6 mg/ml): less than 0.1 μg/ml
- concentration at 120 min ([10]; at 0 mm (urethral surface), 120 minutes, read-out: bladder wall tissue concentration): ~80000 ng/g
- concentration at 120 min ([10]; at approximately 2 mm depth, read-out: bladder wall tissue concentration): ~3000 ng/g
- concentration at 120 min ([10]; remainder of the bladder wall, read-out: bladder wall tissue concentration): ~3000 ng/g
- concentration at 120 min ([10]; summary of Example 13, read-out: concentrations in the targeted tissues after local administration): 5000 to 100000 ng/g
- half-life, first phase of triphasic plasma decline [11]: 0.229 days
- half-life, second phase of triphasic plasma decline [11]: 4.1 days
- half-life, third phase of triphasic plasma decline [11]: 78 days
- total body clearance [11]: 0.0095 liter/hour/m^2
- concentration at 72 h (in vivo): ~10 µM and ~14000 ng/mL

Compound: paclitaxel/carboplatin
- MST [12]: 8.1 months
- TTP [12]: 3.1 months
- complete response [12]: < 1%
- overall response rate [12]: about 17%
